From US20250186405A1, “Compound For Use In Treating Narcolepsy” (Alkermes, Inc., priority 2023, published 2025)

Legend:
healthy adult subjects = details: human, in vivo
Experimental: Part 1 of the study is a SAD evaluation in healthy subjects consisting of 6 cohorts: Cohorts 1-6 received powder-in-capsule or matching placebo. There were approximately 8 subjects per cohort. Dose levels were as follows:
No food was given for at least 4 hours after dose administration. Water was allowed ad libitum except for the time 1 hour before and 1 hour after study drug administration. Safety assessments including AEs, safety ECGs, vital signs, and clinical laboratory tests were conducted, and plasma PK samples were collected.
(§1) Adverse events (AEs) and serious adverse events (SAEs) were monitored continuously until the completion of the study.

[1] = tested on: subjects with narcolepsy type-2 (NT2); details: human, in vivo
Experimental: (§2) Part 5 consisted of a 4-way, 4-period crossover study design in approximately 8 subjects (2 subjects per sequence; minimum of 4 subjects with 1 subject per sequence). Subjects were randomized 1:1:1:1 to 1 of 4 sequences with 4 treatment periods (3 single doses of Compound A and 1 dose of matching placebo), with up to 48 hours of washout between treatments. Treatments were administered under fasted state.
(§3) Subjects were randomized to 1 of 4 sequences. […] In each period, subjects were administered a single dose of study drug (either Compound A or placebo) as per the randomization schedule with approximately 240 mL of noncarbonated water following overnight fasting. No food was given for at least 3 hours after dose administration (i.e., fast can be broken after the 3-hour PK time point is collected). Water was allowed ad libitum except for 1 hour before and 1 hour after study drug administration. Safety assessments including AEs, safety ECGs, vital signs, and clinical laboratory tests were conducted, and plasma PK samples were collected. Furthermore, BP and HR were monitored once every hour for 12 hours on the dosing days.
as §1
(§4) Nine subjects with NT2 were dosed in Part 5 (POC in NT2) in a randomized 4-sequence 4-period cross-over design. Each dose of Compound A or matching placebo was separated by 2 days. A 14-day washout period preceded the treatment period and included discontinuation of narcolepsy medications. All 9 subjects underwent the washout period and received at least one dose of Compound A. All subjects completed all 4-way randomized crossover periods.

[2] = tested on: subjects with narcolepsy type-2 (NT2); test: Part 5 POC NT2: treatment-emergent adverse events, single doses, crossover; details: N = 9
Experimental: as §2, §3, §1, §4

## CS(=O)(=O)N[C@H]1CCCN2C(=O)COc3ccccc3C3CCC(CC3)OCC12 (stereo partly drawn) [Compound A, N-[(4S,4aR,7α,10α)-1,2,3,4,4a,5,7,8,9,10,16,17-dodecahydro-17-oxo-7,10-ethanopyrido[1,2-d][1,7,4]benzodioxaazacyclotridecin-4-yl]methanesulfonamide]
Healthy adult subjects
  TEAE COVID-19: 3 n
[1]
  TEAE by Preferred Term: Influenza: 1 (11.1) n (%)
[2]; 5 mg single dose
  AE Leading to Study Drug Discontinuation: 0 n (%)
  Any SAEs: 0 n (%)
  Any TEAE: 3 (33.3) n (%)
  Death: 0 n (%)
  Drug Related TEAE by Preferred Term: Altered state of consciousness: 0 n (%)
  Drug Related TEAE by Preferred Term: Dizziness: 0 n (%)
  Drug Related TEAE by Preferred Term: Dizziness postural: 0 n (%)
  Drug Related TEAE by Preferred Term: Feeling jittery: 0 n (%)
  Drug Related TEAE by Preferred Term: Headache: 0 n (%)
  Drug Related TEAE by Preferred Term: Initial insomnia: 1 (11.1) n (%)
  Drug Related TEAE by Preferred Term: Insomnia: 0 n (%)
  Drug Related TEAE by Preferred Term: Photophobia: 0 n (%)
  Drug Related TEAE by Preferred Term: Pollakiuria: 0 n (%)
  Drug Related TEAE by Preferred Term: Tachycardia: 0 n (%)
  Drug Related TEAE by Preferred Term: Urinary incontinence: 0 n (%)
  Subjects with at least one TEAE: 3 (33.3) n (%)
  Subjects with at least one treatment-related TEAE: 1 (11.1) n (%)
  TEAE by Highest Relationship: Not Related: 2 (22.2) n (%)
  TEAE by Highest Relationship: Related: 1 (11.1) n (%)
  TEAE by Highest Severity: Mild: 3 (33.3) n (%)
  TEAE by Highest Severity: Moderate: 0 n (%)
  TEAE by Highest Severity: Severe: 0 n (%)
  TEAE by Preferred Term: Altered state of consciousness: 0 n (%)
  TEAE by Preferred Term: Constipation: 0 n (%)
  TEAE by Preferred Term: Contusion: 0 n (%)
  TEAE by Preferred Term: Dizziness: 0 n (%)
  TEAE by Preferred Term: Dizziness postural: 0 n (%)
  TEAE by Preferred Term: Dry skin: 1 (11.1) n (%)
  TEAE by Preferred Term: Feeling jittery: 0 n (%)
  TEAE by Preferred Term: Headache: 0 n (%)
  TEAE by Preferred Term: Initial insomnia: 1 (11.1) n (%)
  TEAE by Preferred Term: Insomnia: 0 n (%)
  TEAE by Preferred Term: Nasal dryness: 0 n (%)
  TEAE by Preferred Term: Nausea: 0 n (%)
  TEAE by Preferred Term: Photophobia: 0 n (%)
  TEAE by Preferred Term: Pollakiuria: 0 n (%)
  TEAE by Preferred Term: Rash: 0 n (%)
  TEAE by Preferred Term: Skin lesion: 1 (11.1) n (%)
  TEAE by Preferred Term: Tachycardia: 0 n (%)
  TEAE by Preferred Term: Urinary incontinence: 0 n (%)
[2]; 12 mg single dose
  AE Leading to Study Drug Discontinuation: 0 n (%)
  Any SAEs: 0 n (%)
  Any TEAE: 4 (44.4) n (%)
  Death: 0 n (%)
  Drug Related TEAE by Preferred Term: Altered state of consciousness: 0 n (%)
  Drug Related TEAE by Preferred Term: Dizziness: 0 n (%)
  Drug Related TEAE by Preferred Term: Dizziness postural: 0 n (%)
  Drug Related TEAE by Preferred Term: Feeling jittery: 0 n (%)
  Drug Related TEAE by Preferred Term: Headache: 0 n (%)
  Drug Related TEAE by Preferred Term: Initial insomnia: 0 n (%)
  Drug Related TEAE by Preferred Term: Insomnia: 0 n (%)
  Drug Related TEAE by Preferred Term: Photophobia: 0 n (%)
  Drug Related TEAE by Preferred Term: Pollakiuria: 1 (1.1) n (%)
  Drug Related TEAE by Preferred Term: Tachycardia: 0 n (%)
  Drug Related TEAE by Preferred Term: Urinary incontinence: 0 n (%)
  Subjects with at least one TEAE: 4 (44.4) n (%)
  Subjects with at least one treatment-related TEAE: 1 (11.1) n (%)
  TEAE by Highest Relationship: Not Related: 3 (33.3) n (%)
  TEAE by Highest Relationship: Related: 1 (11.1) n (%)
  TEAE by Highest Severity: Mild: 4 (44.4) n (%)
  TEAE by Highest Severity: Moderate: 0 n (%)
  TEAE by Highest Severity: Severe: 0 n (%)
  TEAE by Preferred Term: Altered state of consciousness: 0 n (%)
  TEAE by Preferred Term: Constipation: 1 (11.1) n (%)
  TEAE by Preferred Term: Contusion: 0 n (%)
  TEAE by Preferred Term: Dizziness: 0 n (%)
  TEAE by Preferred Term: Dizziness postural: 0 n (%)
  TEAE by Preferred Term: Dry skin: 0 n (%)
  TEAE by Preferred Term: Feeling jittery: 0 n (%)
  TEAE by Preferred Term: Headache: 0 n (%)
  TEAE by Preferred Term: Initial insomnia: 0 n (%)
  TEAE by Preferred Term: Insomnia: 0 n (%)
  TEAE by Preferred Term: Nasal dryness: 0 n (%)
  TEAE by Preferred Term: Nausea: 1 (11.1) n (%)
  TEAE by Preferred Term: Photophobia: 0 n (%)
  TEAE by Preferred Term: Pollakiuria: 1 (11.1) n (%)
  TEAE by Preferred Term: Rash: 1 (11.1) n (%)
  TEAE by Preferred Term: Skin lesion: 0 n (%)
  TEAE by Preferred Term: Tachycardia: 0 n (%)
  TEAE by Preferred Term: Urinary incontinence: 0 n (%)
